Data set [1] has as its target 3',5'-cyclic-AMP phosphodiesterase 4D (Homo sapiens, UniProt Q08499). Put plainly: Inhibition of human PDE4D2 (86 to 413 residues) extracted from Escherichia coli BL21 cells using 3H-cAMP/3H-cGMP as substrate preincubated with compound for 15 mins followed by substrate addition by liquid scintillation counter.
In data set [2] the target is High affinity 3',5'-cyclic-AMP phosphodiesterase 7A (Homo sapiens, UniProt Q13946). Put plainly: Inhibition of PDE7A1 (130 to 482 residues) (unknown origin) extracted from Escherichia coli BL21 cells using 3H-cAMP/3H-cGMP as substrate preincubated with compound for 15 mins followed by substrate addition by liquid scintillation counter.
Chain of High affinity 3',5'-cyclic-AMP phosphodiesterase 7A (Q13946 whole entry, the tested form may be a part): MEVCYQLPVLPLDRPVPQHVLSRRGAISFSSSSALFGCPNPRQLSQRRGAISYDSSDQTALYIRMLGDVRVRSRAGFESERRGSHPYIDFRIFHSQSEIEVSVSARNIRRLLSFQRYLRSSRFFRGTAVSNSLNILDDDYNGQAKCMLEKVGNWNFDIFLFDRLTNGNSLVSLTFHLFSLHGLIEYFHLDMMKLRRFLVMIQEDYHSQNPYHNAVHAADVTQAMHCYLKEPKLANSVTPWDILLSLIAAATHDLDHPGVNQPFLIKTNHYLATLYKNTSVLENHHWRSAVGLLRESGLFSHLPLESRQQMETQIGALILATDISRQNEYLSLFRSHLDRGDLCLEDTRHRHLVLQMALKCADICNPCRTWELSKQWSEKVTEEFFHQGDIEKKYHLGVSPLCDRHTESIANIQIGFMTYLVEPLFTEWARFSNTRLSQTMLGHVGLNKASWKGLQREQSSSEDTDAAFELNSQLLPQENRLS
Data set [3] has as its system HaCaT. Put plainly: Cytotoxicity against human HaCaT cells assessed as reduction in cell viability at 5 to 80 uM incubated for 24 hrs by CCK-8 assay. Particulars: dose 5-80 µM. It counts as toxicity, cell-based. A general note: Tetrazolium assays rely on reduction of a dye to a coloured formazan, in cell work by metabolically active cells.
Data set [4] concerns RAW264.7. Put plainly: Anti-inflammatory activity in LPS-stimulated mouse RAW264.7 cells assessed as reduction in TNF-alpha mRNA level pretreated with compound for 2 hrs followed by LPS stimulation and measured after 6 hrs by q-PCR analysis. Conditions: dose 5-20 µM, time 8.0 hrs. It counts as functional, cell-based.
Data set [5] has as its system RAW264.7. Put plainly: Anti-inflammatory activity in LPS-stimulated mouse RAW264.7 cells assessed as reduction in IL-1beta mRNA level pretreated with compound for 2 hrs followed by LPS stimulation and measured after 6 hrs by q-PCR analysis. It counts as functional, cell-based. Conditions: dose 5-20 µM, time 8.0 hrs.
The test system of data set [6] is HaCaT. Put plainly: Anti-inflammatory activity in M5- stimulated human HaCaT cells assessed as reduction in TNF-alpha mRNA level incubated for 24 hrs by q-PCR analysis. It counts as functional, cell-based. Conditions: dose 5-20 µM.
The test system of data set [7] is HaCaT. Put plainly: Anti-psoriasis activity in M5-stimulated human HaCaT cells assessed as restoration of cAMP level at 20 uM incubated for 2 hrs by competitive ELISA. It counts as functional, cell-based. (Cyclic AMP is a second messenger, typically raised through Gs and lowered through Gi signalling.)
Data set [8] is described as follows: Drug absorption in rat skin assessed as skin permeability by measuring steady-state transdermal flux administered topically as 0.3% ointment at 100 mg by HPLC analysis. Conditions: in vivo, topical_or_ocular. It counts as ADME, tissue-based, Skin of body.
Data set [9] has as its system Mus musculus. Put plainly: Anti-psoriasis effect in IMQ-induced female BALB/c mouse assessed as reduction in severity of skin erythema at 20 mg/kg administered topically as 0.3 % ointment pretreated with IMQ for 6 hrs followed by compound addition once daily for 7 days. It counts as functional, organism-based. Conditions: time 7.0 day.
Data set [10] has as its system Mus musculus. Put plainly: Anti-psoriasis effect in IMQ-induced female BALB/c mouse assessed as decrease in skin thickness at 20 mg/kg administered topically as 0.3 % ointment pretreated with IMQ for 6 hrs followed by compound addition once daily for 7 days. Conditions: time 7.0 day. It counts as functional, organism-based.
Data set [11] relates to Mus musculus. Put plainly: Anti-psoriasis effect in IMQ-induced female BALB/c mouse assessed as change in body weight at 20 mg/kg administered topically as 0.3 % ointment pretreated with IMQ for 6 hrs followed by compound addition once daily for 7 days. Conditions: time 7.0 day. It counts as functional, organism-based.
Data set [12] relates to Mus musculus. Put plainly: Anti-psoriasis effect in IMQ-induced female BALB/c mouse assessed as reduction in skin thickness at 20 mg/kg administered topically as 0.3 % ointment pretreated with IMQ for 6 hrs followed by compound addition once daily for 7 days. Conditions: time 7.0 day. It counts as functional, organism-based.
Data set [13] has as its system Mus musculus. Put plainly: Anti-psoriasis effect in IMQ-induced female BALB/c mouse assessed as change in size of spleen at 20 mg/kg administered topically as 0.3 % ointment pretreated with IMQ for 6 hrs followed by compound addition once daily for 7 days by H and E staining based analysis. Particulars: time 7.0 day. It counts as functional, organism-based.
Data set [14] concerns Mus musculus. Put plainly: Anti-psoriasis effect in IMQ-induced female BALB/c mouse assessed as change in weight of spleen at 20 mg/kg administered topically as 0.3 % ointment pretreated with IMQ for 6 hrs followed by compound addition once daily for 7 days by H and E staining based analysis. Particulars: time 7.0 day. It counts as functional, organism-based.
In data set [15] the test system is Mus musculus. Put plainly: Anti-inflammatory activity in IMQ-induced psoriasis in female BALB/c mouse assessed as reduction in IL-1beta mRNA level at 20 mg/kg administered topically as 0.3 % ointment pretreated with IMQ for 6 hrs followed by compound addition once daily for 7 days by q-PCR analysis. Conditions: time 7.0 day. It counts as functional, organism-based.

The subject of data set [16] is Mus musculus. Put plainly: Anti-inflammatory activity in IMQ-induced psoriasis in female BALB/c mouse assessed as reduction in CCL-20 mRNA level at 20 mg/kg administered topically as 0.3 % ointment pretreated with IMQ for 6 hrs followed by compound addition once daily for 7 days by q-PCR analysis. Conditions: time 7.0 day. It counts as functional, organism-based.

The subject of data set [17] is Mus musculus. Put plainly: Anti-psoriasis effect in IMQ-induced female BALB/c mouse model assessed as reduction in spinous layer thickness at 20 mg/kg administered topically as 0.3 % ointment pretreated with IMQ for 6 hrs followed by compound addition once daily for 7 days by H and E staining based analysis. It counts as functional, organism-based. Particulars: time 7.0 day.

Data set [18] has as its system Mus musculus. Put plainly: Anti-psoriasis effect in female BALB/c mouse model assessed as reduction in K6 protein expression at 20 mg/kg administered topically as 0.3 % ointment pretreated with IMQ for 6 hrs followed by compound addition once daily for 7 days by Western blotting analysis. Conditions: time 7.0 day. It counts as functional, organism-based. Background: Immunoblotting shows a protein as a band on a membrane.

For data set [19], the system named is Mus musculus. Put plainly: Anti-psoriasis effect in female BALB/c mouse model assessed as reduction in K17 protein expression at 20 mg/kg administered topically as 0.3 % ointment pretreated with IMQ for 6 hrs followed by compound addition once daily for 7 days by Western blotting analysis. Conditions: time 7.0 day. It counts as functional, organism-based.

Activity calls are given as the source filed them. The rule behind the calls is not given here.

The text below walks through data of ChEMBL document CHEMBL6115031, “Structure-Based Optimization of Moracin M as Potent and Selective PDE4 Inhibitors with Antipsoriasis Effects” (J Med Chem, 2025).

Chain of 3',5'-cyclic-AMP phosphodiesterase 4D (Q08499 whole entry, the tested form may be a part): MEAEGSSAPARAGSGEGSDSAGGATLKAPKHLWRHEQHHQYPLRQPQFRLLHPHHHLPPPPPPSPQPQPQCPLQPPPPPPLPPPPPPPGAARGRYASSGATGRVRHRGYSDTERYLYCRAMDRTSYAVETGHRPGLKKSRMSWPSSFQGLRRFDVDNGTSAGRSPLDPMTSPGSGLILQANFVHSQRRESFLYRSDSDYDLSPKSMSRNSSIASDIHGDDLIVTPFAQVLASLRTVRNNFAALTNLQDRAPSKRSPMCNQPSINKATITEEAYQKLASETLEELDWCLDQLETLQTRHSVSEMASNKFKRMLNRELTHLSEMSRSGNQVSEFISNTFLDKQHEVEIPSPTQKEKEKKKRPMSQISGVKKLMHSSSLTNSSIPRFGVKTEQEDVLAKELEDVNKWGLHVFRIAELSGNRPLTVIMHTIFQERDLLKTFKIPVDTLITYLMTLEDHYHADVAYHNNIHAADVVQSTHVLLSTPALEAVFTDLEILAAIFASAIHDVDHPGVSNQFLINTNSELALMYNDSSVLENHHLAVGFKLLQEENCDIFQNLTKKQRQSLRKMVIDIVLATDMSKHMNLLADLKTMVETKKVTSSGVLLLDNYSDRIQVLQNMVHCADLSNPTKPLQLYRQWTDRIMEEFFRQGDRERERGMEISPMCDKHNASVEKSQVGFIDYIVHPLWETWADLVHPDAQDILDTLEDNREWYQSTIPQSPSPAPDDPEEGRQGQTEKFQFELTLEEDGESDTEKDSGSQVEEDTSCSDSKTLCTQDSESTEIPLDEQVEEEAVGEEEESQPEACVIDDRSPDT

Broadly, the IC50 is the concentration that gives 50% inhibition. For the molecule `COC(=O)[C@H]1C[C@@H](Oc2c(O)ccc3cc(-c4ccc(OC(F)F)c(OCC5CC5)c4)oc23)CN1`, the results for the IC50 in [1] and in data set [2] were 8.6 nM and 5910 nM, respectively. Further, the Activity entry was “Non-toxic” in the data set on HaCaT [3], “Dose-dependent-effect” in the data set with RAW264.7 [4], “Dose-dependent-effect” in the data set with RAW264.7 [5] and “Dose-dependent-effect” in the data set on HaCaT [6]. The result with HaCaT [7], with Mus musculus [9], in the data set on Mus musculus [10], with Mus musculus [11], in the data set with Mus musculus [12] and in the data set on Mus musculus [13] was Active. The result in the data set on Mus musculus [14], with Mus musculus [15], with Mus musculus [16], in the data set on Mus musculus [17], in the data set with Mus musculus [18] and in the data set on Mus musculus [19] was Active. For the same molecule, the Jss in [8] was 0.43 ug/cm2.hr.
